{"source": "patent US20150164762A1", "about": "“USE OF ETHANOLAMINE PHOSPHATE” (priority 2012, published 2015)", "format_in_all_cases": "cell-based, human", "key": {"BEAS-2B [1]": {"system": "BEAS-2B", "test": "Cell toxicity of H2O2 after EP pre-treatment (WST-8 assay)", "procedure": "Cells of the normal airway epithelial cell line BEAS-2B were seeded at a density of 1×10^5/cm^2 on a 96-well plate, and after 24 hours the medium was replaced with 0.5% FBS RPMI 1640 containing EP at final concentrations of 0, 250 and 500 μM. 24 hours after medium replacement the medium was replaced with 0.5% FBS RPMI-1640, and serially diluted H2O2 was administered (n=4). 24 hours after H2O2 administration a cell toxicity test WST-8 assay (Cell Counting Kit-8, Dojindo) was performed. For the data analysis, the 50% cell death concentration EC50 was calculated with GraphPad Prism 5 statistical analysis software."}, "BEAS-2B [2]": {"system": "BEAS-2B", "test": "Transepithelial electrical resistance (TER), BEAS-2B", "details": "EP 1 mM, 1% FBS", "procedure": "Cells of the established normal human airway epithelial cell line BEAS-2B were seeded to 1×10^5 cells/cm^2 on a cell culture insert (353104, BD Falcon) (FIG. 14). 10% FBS RPMI-1640 was used as the medium. The amount of medium was 200 μl on the insert side and 750 μl on the well side. Beginning the next day, substitution/medium replacement was performed once a day with 1% FBS RPMI-1640 prepared with the following 4 reagent conditions, and transepithelial electrical resistance (TER) was measured with MilliCell (Millipore). • Condition 1: Control • Condition 2: EP 1 mM • Condition 3: Dexamethasone 1 μM (dexamethasone (Dex): positive control substance known to enhance barrier function) • Condition 4: EP 1 mM and Dex 1 μM"}, "IL-8": {"system": "IL-8", "test": "ELISA of IL-8 secreted from THP-1 cells, with or without LPS", "procedure": "Human monocytic cultured THP-1 cells were cultured logarithmically as follows in 10% FBS RPMI-1640 growth culture. Cells were seeded to 4×10^5/ml on a 24-well plate (500 μl/well), additional growth culture containing EP was added, and finally the EP concentration was adjusted to the target concentration (0.1 mM, 1 mM). 2 hours after EP administration, further growth medium containing lipopolysaccharides (LPS) was added, and adjusted to concentrations of 0.1 μg/ml and 1 μg/ml.\n4 hours and 24 hours after lipopolysaccharide administration, the medium was collected, the cells were precipitated by centrifugation, and the supernatant was used as an ELISA sample. As in the Singh et al. report, the inflammatory cytokine TNF-α and the chemokine IL-8, which attracts inflammatory cells, were used as ELISA measurement indicators."}, "HEKa cells": {"system": "HEKa cells", "test": "WST-8 proliferation test, primary normal keratinocytes (HEKa)", "details": "Epilife basal medium, 21 days", "procedure": "HEKa cells (Takara Bio) were seeded to 2×10^4 cells/cm^2 on a 48-well plate. Epilife basal medium (M-EPI-500-CA, Invitrogen) with HKGS Kit (S-001-K, Invitrogen) as an added factor was used as the medium. This HKGS Kit contains bovine pituitary extract, bovine insulin, hydrocortisone, bovine transferrin and human EGF."}, "HL-60": {"system": "HL-60", "test": "WST-8 proliferation test, HL-60 floating cells", "details": "0% FBS, 72 hours, even at high concentrations", "procedure": "THP-1 (human acute monocytic leukemia cells) and HL-60 (human myeloid leukemia cells) were logarithmically growth cultured in 10% FBS RPMI-1640 to 2 to 10×10^5 cells/cm^2 to achieve logarithmic growth before EP administration. The cell culture liquid was then centrifuged and precipitated at 1000 rpm, and 90 μl per well was dispensed onto a 96-well plate to 2×10^4 cells/cm^2 in 0% FBS RPMI-1640. […] For the WST-8 assay of the floating cells, 10 μl per well of WST-8 assay reagent was added directly to the cell suspension during culture, and after 1 hour absorbance at 450 nm and 600 nm was measured with a plate reader and the data were analyzed as in the examples above."}, "caspase 3/7": {"system": "caspase 3/7", "test": "Serum-free stress-induced caspase 3/7 activity (Caspase-Glo3/7 assay) per cell", "details": "0% FBS, 24 hours", "procedure": "After medium replacement, 10 μl per well of EP or FBS solution was added. After 24 hours, a proliferation test (WST-8 assay) and caspase 3/7 assay (Caspase-Glo3/7 assay, Promega) were performed. […] Caspase 3/7 activity was measured by a luminescence test, the blank average was subtracted, and this was divided by the corrected absorbance (corresponding to relative cell number) from the WST-8 assay to calculate the caspase 3/7 activity per cell."}, "Calu-3 cells": {"system": "Calu-3 cells", "test": "Transepithelial electrical resistance (TER), Calu-3", "details": "1 mM EP, 0.1% FBS", "procedure": "Calu-3 cells were seeded to 3×10^5 cells/cm^2 on a cell culture insert (353104, BD Falcon). They were cultured until confluent in 10% FBS RPMI-1640, and once confluence was reached, 0.1% FBS RPMI-1640 containing the following was substituted, and the medium was replaced every day. TER was measured as in Example 11. The results are shown in FIG. 15. • Condition 1: Control • Condition 2: 1 μM dexamethasone • Condition 3: 1 mM EP"}}}
{"smiles": "NCCOP(=O)(O)O", "note": "[EP, Ethanolamine phosphate]", "values": [{"measurement": "Toxity reduction rate % (H2O2 cytotoxicity)", "setting": "BEAS-2B [1]; EP pre-treatment 250 uM", "value": 33, "unit": "%"}, {"measurement": "Toxity reduction rate % (H2O2 cytotoxicity)", "setting": "BEAS-2B [1]; EP pre-treatment 500 uM", "value": 28, "unit": "%"}, {"measurement": "reduction of the cytotoxicity of H2O2", "setting": "BEAS-2B [1]; pre-treatment with 250 to 500 μM of EP", "value": "about 30%"}, {"measurement": "increase in TER", "setting": "BEAS-2B [2]", "value": 49, "unit": "%"}, {"measurement": "secretion of LPS-induced IL-8", "setting": "IL-8; 4 hours and 24 hours of stimulus, EP 0.1 mM, 1 mM", "value": "dose-dependently suppressed"}, {"measurement": "IL-8 secretion, reduced to % of untreated", "setting": "IL-8; cells not treated with LPS, 26 hours, 1 mM EP", "value": "about 43%"}, {"measurement": "growth-stimulating effect", "setting": "HEKa cells", "value": "growth-stimulating effect"}, {"measurement": "minimum concentration giving roughly the maximum growth-stimulating effect", "setting": "HEKa cells", "value": 15.6, "unit": "µM"}, {"measurement": "cell proliferation ability", "setting": "HL-60", "value": "absolutely no cell proliferation ability"}, {"measurement": "FBS concentration whose effect EP 1000 μM corresponds to (regression curve)", "setting": "caspase 3/7", "value": 2.2, "unit": "%"}, {"measurement": "caspase 3/7 activity per cell", "setting": "caspase 3/7; 1000 μM", "value": "about 0.72 fold"}, {"measurement": "rise in TER value relative to the control", "setting": "Calu-3 cells", "value": 2.0, "unit": "fold"}]}
